Test results: patent US20140024527A1, “HERBICIDAL PYRAZINONES” (E I DU DE NEMOURS AND COMPANY, priority 2011, published 2014)

Tests used:
Assay type in all cases: in vivo
rice (Oryza sativa) = test: Test B flooded paddy test; conditions: Flood, scale 0 to 100
From the text: (§1) Plant species in the flooded paddy test consisted of rice (Oryza sativa), umbrella sedge (Cyperus difformis), ducksalad (Heteranthera limosa) and barnyardgrass (Echinochloa crus-galli) grown to the 2-leaf stage for testing. At time of treatment, test pots were flooded to 3 cm above the soil surface, treated by application of test compounds directly to the paddy water, and then maintained at that water depth for the duration of the test. Treated plants and controls were maintained in a greenhouse for 13 to 15 days, after which time all species were compared to controls and visually evaluated. Plant response ratings, summarized in Table B, are based on a scale of 0 to 100 where 0 is no effect and 100 is complete control. A dash (-) response means no test result.

[1] = test system: umbrella sedge (Cyperus difformis); test: Test B flooded paddy test; conditions: Flood, scale 0 to 100
From the text: as §1

[2] = test system: barnyardgrass (Echinochloa crus-galli); test: Test B flooded paddy test; conditions: Flood
From the text: as §1

[3] = test system: ducksalad (Heteranthera limosa); test: Test B flooded paddy test; conditions: Flood, scale 0 to 100
From the text: as §1

[4] = test system: velvetleaf (Abutilon theophrasti); test: Test A postemergence; conditions: 0 to 100 scale, 0 no effect, 100 complete control, approx. 10 days
From the text: (§2) Seeds of barnyardgrass (Echinochloa crus-galli), large crabgrass (Digitaria sanguinalis), giant foxtail (Setaria faberii), morningglory (Ipomoea spp.), pigweed (Amaranthus retroflexus), velvetleaf (Abutilon theophrasti), wheat (Triticum aestivum) and corn (Zea mays) were planted into a blend of loam soil and sand and treated preemergence with a directed soil spray using test chemicals formulated in a non-phytotoxic solvent mixture which included a surfactant. At the same time these species were also treated with postemergence applications of test compounds formulated in the same manner. Plants ranged in height from 2 to 10 cm and were in the one- to two-leaf stage for the postemergence treatments. Treated plants and untreated controls were maintained in a greenhouse for approximately 10 days, after which time all treated plants were compared to untreated controls and visually evaluated for injury. Plant response ratings, summarized in Table A, are based on a 0 to 100 scale where 0 is no effect and 100 is complete control.

[5] = test system: barnyardgrass (Echinochloa crus-galli); test: Test A postemergence; conditions: 0 to 100 scale, 0 no effect, 100 complete control, approx. 10 days
From the text: as §2

corn (Zea mays) [6] = test: Test A postemergence; conditions: 0 to 100 scale, 0 no effect, 100 complete control, approx. 10 days
From the text: as §2

[7] = test system: morningglory (Ipomoea spp.); test: Test A postemergence; conditions: 0 to 100 scale, 0 no effect, 100 complete control, approx. 10 days
From the text: as §2

[8] = test system: giant foxtail (Setaria faberii); test: Test A postemergence; conditions: 0 to 100 scale, 0 no effect, 100 complete control, approx. 10 days
From the text: as §2

[9] = test system: pigweed (Amaranthus retroflexus); test: Test A postemergence; conditions: 0 to 100 scale, 0 no effect, 100 complete control, approx. 10 days
From the text: as §2

[10] = test system: wheat (Triticum aestivum); test: Test A postemergence; conditions: 0 to 100 scale, 0 no effect, 100 complete control, approx. 10 days
From the text: as §2

[11] = test system: large crabgrass (Digitaria sanguinalis); test: Test A postemergence; conditions: 0 to 100 scale, 0 no effect, 100 complete control, approx. 10 days
From the text: as §2

[12] = test system: velvetleaf (Abutilon theophrasti); test: Test A preemergence; conditions: 0 to 100 scale, 0 no effect, 100 complete control, approx. 10 days
From the text: as §2

[13] = test system: barnyardgrass (Echinochloa crus-galli); test: Test A preemergence; conditions: 0 to 100 scale, 0 no effect, 100 complete control, approx. 10 days
From the text: as §2

corn (Zea mays) [14] = test: Test A preemergence; conditions: 0 to 100 scale, 0 no effect, 100 complete control, approx. 10 days
From the text: as §2

[15] = test system: morningglory (Ipomoea spp.); test: Test A preemergence; conditions: 0 to 100 scale, 0 no effect, 100 complete control, approx. 10 days
From the text: as §2

[16] = test system: giant foxtail (Setaria faberii); test: Test A preemergence; conditions: 0 to 100 scale, 0 no effect, 100 complete control, approx. 10 days
From the text: as §2

[17] = test system: pigweed (Amaranthus retroflexus); test: Test A preemergence; conditions: 0 to 100 scale, 0 no effect, 100 complete control, approx. 10 days
From the text: as §2

[18] = test system: wheat (Triticum aestivum); test: Test A preemergence; conditions: 0 to 100 scale, 0 no effect, 100 complete control, approx. 10 days
From the text: as §2

[19] = test system: large crabgrass (Digitaria sanguinalis); test: Test A preemergence; conditions: 0 to 100 scale, 0 no effect, 100 complete control, approx. 10 days
From the text: as §2

[20] = 250 g ai/ha, scale 0 to 100 (0 no effect, 100 complete control)

## CCCCn1c(-c2ccccc2)cnc(C(=O)C2=C(O)CCCC2=O)c1=O [Compound 1, 1-butyl-3-[(2-hydroxy-6-oxo-1-cyclohexen-1-yl)carbonyl]-6-phenyl-2(1H)-pyrazinone]
Rice (Oryza sativa); 62 g ai/ha
  Plant response rating, Rice: 70
Rice (Oryza sativa); 250 g ai/ha
  Plant response rating, Rice: 85
[1]; 62 g ai/ha
  Plant response rating, Sedge, Umbrella: 70
[1]; 250 g ai/ha
  Plant response rating, Sedge, Umbrella: 95
[2]; 62 g ai/ha, scale 0 to 100
  Plant response rating, Barnyardgrass: 60
[2]; [20]
  Plant response rating, Barnyardgrass: 80
[3]; 62 g ai/ha
  Plant response rating, Ducksalad: 60
[3]; 250 g ai/ha
  Plant response rating, Ducksalad: 95
[4]; 125 g ai/ha
  Plant response rating, Velvetleaf: 100
[4]; 500 g ai/ha
  Plant response rating, Velvetleaf: 100
[5]; 125 g ai/ha
  Plant response rating, Barnyardgrass: 10
[5]; 500 g ai/ha
  Plant response rating, Barnyardgrass: 80
Corn (Zea mays) [6]; 125 g ai/ha
  Plant response rating, Corn: 0
Corn (Zea mays) [6]; 500 g ai/ha
  Plant response rating, Corn: 10
[7]; 125 g ai/ha
  Plant response rating, Morningglory: 40
[7]; 500 g ai/ha
  Plant response rating, Morningglory: 100
[8]; 125 g ai/ha
  Plant response rating, Foxtail, Giant: 10
[8]; 500 g ai/ha
  Plant response rating, Foxtail, Giant: 40
[9]; 125 g ai/ha
  Plant response rating, Pigweed: 60
[9]; 500 g ai/ha
  Plant response rating, Pigweed: 100
[10]; 125 g ai/ha
  Plant response rating, Wheat: 0
[10]; 500 g ai/ha
  Plant response rating, Wheat: 0
[11]; 125 g ai/ha
  Plant response rating, Crabgrass, Large: 10
[11]; 500 g ai/ha
  Plant response rating, Crabgrass, Large: 50
[12]; 125 g ai/ha
  Plant response rating, Velvetleaf: 50
[12]; 500 g ai/ha
  Plant response rating, Velvetleaf: 100
[13]; 125 g ai/ha
  Plant response rating, Barnyardgrass: 0
[13]; 500 g ai/ha
  Plant response rating, Barnyardgrass: 80
Corn (Zea mays) [14]; 125 g ai/ha
  Plant response rating, Corn: 0
Corn (Zea mays) [14]; 500 g ai/ha
  Plant response rating, Corn: 0
[15]; 125 g ai/ha
  Plant response rating, Morningglory: 0
[15]; 500 g ai/ha
  Plant response rating, Morningglory: 70
[16]; 125 g ai/ha
  Plant response rating, Foxtail, Giant: 0
[16]; 500 g ai/ha
  Plant response rating, Foxtail, Giant: 30
[17]; 125 g ai/ha
  Plant response rating, Pigweed: 60
[17]; 500 g ai/ha
  Plant response rating, Pigweed: 100
[18]; 125 g ai/ha
  Plant response rating, Wheat: 0
[18]; 500 g ai/ha
  Plant response rating, Wheat: 0
[19]; 125 g ai/ha
  Plant response rating, Crabgrass, Large: 10
[19]; 500 g ai/ha
  Plant response rating, Crabgrass, Large: 40

## O=C1CCCC(O)=C1C(=O)c1nc(Cl)c(-c2cccc(F)c2)n(C2CCCCC2)c1=O [Compound 2, 5-chloro-1-cyclohexyl-6-(3-fluorophenyl)-3-[(2-hydroxy-6-oxo-1-cyclohexen-1-yl)carbonyl]-2(1H)pyrazinone]
Rice (Oryza sativa); 31 g ai/ha
  Plant response rating, Rice: 0
Rice (Oryza sativa); 62 g ai/ha
  Plant response rating, Rice: 0
Rice (Oryza sativa); 125 g ai/ha
  Plant response rating, Rice: 0
Rice (Oryza sativa); 250 g ai/ha
  Plant response rating, Rice: 0
[1]; 31 g ai/ha
  Plant response rating, Sedge, Umbrella: 0
[1]; 62 g ai/ha
  Plant response rating, Sedge, Umbrella: 0
[1]; 125 g ai/ha
  Plant response rating, Sedge, Umbrella: 20
[1]; 250 g ai/ha
  Plant response rating, Sedge, Umbrella: 60
[2]; 31 g ai/ha, scale 0 to 100
  Plant response rating, Barnyardgrass: 0
[2]; 62 g ai/ha, scale 0 to 100
  Plant response rating, Barnyardgrass: 0
[2]; 125 g ai/ha, scale 0 to 100
  Plant response rating, Barnyardgrass: 0
[2]; [20]
  Plant response rating, Barnyardgrass: 0
[3]; 31 g ai/ha
  Plant response rating, Ducksalad: 0
[3]; 62 g ai/ha
  Plant response rating, Ducksalad: 0
[3]; 125 g ai/ha
  Plant response rating, Ducksalad: 60
[3]; 250 g ai/ha
  Plant response rating, Ducksalad: 80
[4]; 125 g ai/ha
  Plant response rating, Velvetleaf: 70
[4]; 500 g ai/ha
  Plant response rating, Velvetleaf: 100
[5]; 125 g ai/ha
  Plant response rating, Barnyardgrass: 0
[5]; 500 g ai/ha
  Plant response rating, Barnyardgrass: 30
Corn (Zea mays) [6]; 125 g ai/ha
  Plant response rating, Corn: 0
Corn (Zea mays) [6]; 500 g ai/ha
  Plant response rating, Corn: 0
[7]; 125 g ai/ha
  Plant response rating, Morningglory: 60
[7]; 500 g ai/ha
  Plant response rating, Morningglory: 90
[8]; 125 g ai/ha
  Plant response rating, Foxtail, Giant: 0
[8]; 500 g ai/ha
  Plant response rating, Foxtail, Giant: 20
[9]; 125 g ai/ha
  Plant response rating, Pigweed: 30
[9]; 500 g ai/ha
  Plant response rating, Pigweed: 70
[10]; 125 g ai/ha
  Plant response rating, Wheat: 0
[10]; 500 g ai/ha
  Plant response rating, Wheat: 0
[11]; 125 g ai/ha
  Plant response rating, Crabgrass, Large: 0
[11]; 500 g ai/ha
  Plant response rating, Crabgrass, Large: 30
[12]; 125 g ai/ha
  Plant response rating, Velvetleaf: 0
[12]; 500 g ai/ha
  Plant response rating, Velvetleaf: 90
[13]; 125 g ai/ha
  Plant response rating, Barnyardgrass: 0
[13]; 500 g ai/ha
  Plant response rating, Barnyardgrass: 40
Corn (Zea mays) [14]; 125 g ai/ha
  Plant response rating, Corn: 0
Corn (Zea mays) [14]; 500 g ai/ha
  Plant response rating, Corn: 0
[15]; 125 g ai/ha
  Plant response rating, Morningglory: 0
[15]; 500 g ai/ha
  Plant response rating, Morningglory: 80
[16]; 125 g ai/ha
  Plant response rating, Foxtail, Giant: 0
[16]; 500 g ai/ha
  Plant response rating, Foxtail, Giant: 30
[17]; 125 g ai/ha
  Plant response rating, Pigweed: 0
[17]; 500 g ai/ha
  Plant response rating, Pigweed: 80
[18]; 125 g ai/ha
  Plant response rating, Wheat: 0
[18]; 500 g ai/ha
  Plant response rating, Wheat: 0
[19]; 125 g ai/ha
  Plant response rating, Crabgrass, Large: 0
[19]; 500 g ai/ha
  Plant response rating, Crabgrass, Large: 50
